Source: US4303785A, “Antitumor anthracycline antibiotics” (priority 1978, dated 1981)
Values after ≈ are worked out from the molar mass of the structure shown. Read-outs that look alike come from different tables or passages of the source.

Key:
L1210 leukemia = test: Antitumor activity in BDF1 mice inoculated with L1210 leukemia cells (Table 6); assay type: in vivo; details: once daily for 10 days
From the text: As an example, BDF1 mice were inoculated intraperitoneally with 1×10^6 cells/mouse of L1210 leukemia cells.

L1210 cells [1] = test: Inhibition of 14C-uridine and 14C-thymidine incorporation (nucleic acid synthesis) in L1210 cells in culture (Table 5); assay type: cell-based; details: for IC50: Mus musculus, L1210, 1 h
Description: The effect of the tetrahydropyranyl ether derivatives of formula I' on nucleic acid synthesis was examined as follows: […]
1×10^5 cells/ml. of L1210 cells were suspended in RPMI medium containing 10% calf serum, pre-cultivated at 37° C. for 1 to 2 hours in a CO2 incubator and then the test compounds were added to the medium at various concentrations. After 15 min. of incubation, ^14 C-uridine (0.05 μCi/ml.) or ^14 C-thymidine (0.05 μCi/ml.) was added and incubated at 37° C. for 60 min. Trichloroacetic acid (TCA) (10%) was added to the incubation medium to stop the reaction and precipitate the acid-insoluble materials, and then the precipitate was washed three times with 5 to 10% […]. The radioactivity was measured and expressed as 50% inhibition concentration of incorporation.

[2] = test system: Pseudomonas aeruginosa A3; test: Minimum inhibitory concentration, broth dilution method (Table 3); assay type: cell-based
From the text: (§1) To illustrate such activity, minimum inhibitory concentrations (as determined by the broth dilution method) of representative compounds are shown in Table 3.

Candida albicans = test: as above; assay type: cell-based
From the text: as §1

[3] = test system: Micrococcus flavus FDA 16; test: as above; assay type: cell-based
From the text: as §1

Sarcina lutea PCI 1001 = test: as above; assay type: cell-based
From the text: as §1

Escherichia coli NIHJ = test: as above; assay type: cell-based
From the text: as §1

Staph. aureus Smith = test: as above; assay type: cell-based
From the text: as §1

[4] = test system: Bacillus subtillis NRRLB-558; test: as above; assay type: cell-based
From the text: as §1

Bacillus megaterium APF = test: as above; assay type: cell-based
From the text: as §1

Staph. aureus FDA 209P = test: as above; assay type: cell-based
From the text: as §1

[5] = test system: Corynebacterium bovis 1810; test: as above; assay type: cell-based
From the text: as §1

[6] = test system: Bacillus cereus ATCC 10702; test: as above; assay type: cell-based
From the text: as §1

[7] = test system: Mycobacterium smegmatis ATCC 607; test: as above; assay type: cell-based
From the text: as §1

[8] = test system: NADPH-cytochrome P450 reductase; test: Stability on rat hepatic NADPH-cytochrome P450 reductase: 7-deoxyaglycone formed (Table 7); assay type: in vitro ADME; details: 25° C., 25 min., nitrogen; substrate 0.1 mM, NADPH 0.2 mM, enzyme 4.6 μg./ml, pH 8.0
Description: C. The marked antitumor effects seen from A and B above were confirmed by the stability of the test compounds on the inactivation by hepatic NADPH-cytochrome P450 reductase. Specifically, NADPH-cytochrome P450 reductase purified from rat liver homogenate was incubated with the tetrahydropyranyl ether derivatives of formula I' at 25° C. for 25 min. in nitrogen gas phase, and the incubation product formed, 7-deoxyaglycone, was determined as shown in Table 7.

L1210 leukemia cells = test: Growth inhibitory effect on L1210 cells in culture (Table 4); assay type: cell-based; details: for inhibition at 0.1 µg/mL / inhibition at 0.5 µg/mL: Mus musculus
Description: For example, L1210 cells (5×10^4 cells/ml.) were inoculated in RPMI 1640 medium (Roswell Park Memorial Institute 1640) containing 20% calf serum and cultivated at 37° C. in the presence of 0.1 and 0.5 μg./ml. of the test compounds in a CO2 incubator.

[9] = test system: various experimental tumors; details: cited from earlier work
[10] = cited from earlier work
L1210 cells [11] = test: animal or person; assay type: in vivo, CDF1 mice; details: once daily for 10 days; for response vs control in vivo at 0.15 mg/kg: 0.15 mg/kg/day i.p.; for response vs control in vivo at 0.31 mg/kg: 0.31 mg/kg/day i.p.; for response vs control in vivo at 0.625 mg/kg: 0.625 mg/kg/day i.p.; for response vs control in vivo at 1.25 mg/kg: 1.25 mg/kg/day i.p.; for response vs control in vivo at 2.5 mg/kg: 2.5 mg/kg/day i.p.
Description: D. Representative compounds of general formula I" were tested against experimental animal tumors as follows: […]
CDF1 mice were administered intraperitoneally (i.p.) with 1×10^5 cells/mouse of L1210 cells. After 24 hours had elapsed since inoculation, the mice were administered the test compounds intraperitoneally once daily for 10 consecutive days and observed for a 45 day period.
The antitumor activity was shown by the prolongation rate of survival day (T/C, %) to the survival day of control mice injected with physiological saline.

[12] = Mus musculus, L1210, ip, 1080 h, read-out: Antitumor Activity (T/C, prolongation rate of survival day)
[13] = read-out: 50% Inhibition Concentration of 14C-Thymidine Incorporation
[14] = read-out: 50% Inhibition Concentration of 14C-Uridine Incorporation
[15] = L1210, read-out: Inhibition Rate (growth)

Row | SMILES | Antitumor Activity (T/C, prolongation rate of survival day) (L1210 leukemia; 0.15 mg./kg./day i.p.) [%] | Antitumor Activity (T/C, prolongation rate of survival day) (L1210 leukemia; 0.3 mg./kg./day i.p.) [%] | Antitumor Activity (T/C, prolongation rate of survival day) (L1210 leukemia; 0.6 mg./kg./day i.p.) [%] | Antitumor Activity (T/C, prolongation rate of survival day) (L1210 leukemia; 1.25 mg./kg./day i.p.) [%] | Antitumor Activity (T/C, prolongation rate of survival day) (L1210 leukemia; 2.5 mg./kg./day i.p.) [%] | Antitumor Activity (T/C, prolongation rate of survival day) (L1210 leukemia; 5 mg./kg./day i.p.) | Minimum Inhibitory Concentration (MIC) (Staph. aureus Smith) [µg/mL] | Minimum Inhibitory Concentration (MIC) (Bacillus megaterium APF) [µg/mL] | Product (7-Deoxyaglycone) [8] [nmoles/tube] | antitumor spectrum [9] | response vs control in vivo at 0.15 mg/kg (L1210 cells [11]; [12]) [%] | response vs control in vivo at 0.31 mg/kg (L1210 cells [11]; [12]) [%] | response vs control in vivo at 0.625 mg/kg (L1210 cells [11]; [12]) [%] | response vs control in vivo at 1.25 mg/kg (L1210 cells [11]; [12]) [%] | response vs control in vivo at 2.5 mg/kg (L1210 cells [11]; [12]) [%] | IC50 (L1210 cells [1]; [13]) [µg/mL] | IC50 (L1210 cells [1]; [14]) [µg/mL] | inhibition at 0.1 µg/mL (L1210 leukemia cells; [15]) [%] | inhibition at 0.5 µg/mL (L1210 leukemia cells; [15]) [%] | further results
1 | COc1cccc2c1C(=O)c1c(O)c3c(c(O)c1C2=O)C[C@@](O)(C(C)=O)C[C@@H]3O[C@H]1C[C@H](N)[C@H](OC2CCCCO2)[C@H](C)O1 (single isomer, unassigned; isomer b) [4'-O-PDb, 4'-O-tetrahydropyranyl daunomycin (isomer b)] | 90 | 103 | 115 | 122 | 256 | > 320% | 3.12 | 3.12 | 46.6 | – | – | – | – | – | – | – | – | – | – | 50% Inhibition Concentration of 14C-Thymidine Incorporation (L1210 cells [1]; thymidine, 60 min. at 37° C.): 0.32 µg/mL; 50% Inhibition Concentration of 14C-Uridine Incorporation (L1210 cells [1]; uridine, 60 min. at 37° C.): 0.20 µg/mL; Minimum Inhibitory Concentration (MIC) ([2]; Pseudomonas aeruginosa A3): > 50 µg/mL; Minimum Inhibitory Concentration (MIC) (Candida albicans): 25 µg/mL; Minimum Inhibitory Concentration (MIC) ([3]; Micrococcus flavus FDA 16): 1.56 µg/mL; Minimum Inhibitory Concentration (MIC) (Sarcina lutea PCI 1001): 0.39 µg/mL; Minimum Inhibitory Concentration (MIC) (Escherichia coli NIHJ): > 100 µg/mL; Minimum Inhibitory Concentration (MIC) ([4]; Bacillus subtillis NRRLB-558): 1.56 µg/mL; Minimum Inhibitory Concentration (MIC) (Staph. aureus FDA 209P): 6.25 µg/mL; Minimum Inhibitory Concentration (MIC) [5]: 0.78 µg/mL; Minimum Inhibitory Concentration (MIC) [6]: 6.25 µg/mL; Minimum Inhibitory Concentration (MIC) [7]: 6.25 µg/mL; Inhibition Rate (growth) (L1210 leukemia cells; 0.1 μg./ml.): 74.6%; Inhibition Rate (growth) (L1210 leukemia cells; 0.5 μg./ml.): 88.8%
2 | COc1cccc2c1C(=O)c1c(O)c3c(c(O)c1C2=O)C[C@@](O)(C(C)=O)C[C@@H]3O[C@H]1C[C@H](N)[C@H](O)[C@H](C)O1 [Daunomycin, daunomycin, reference compound] | – | – | – | – | – | – | – | – | – | broad antitumor spectrum against various experimental tumors | 118 | 132 | 145 | 191 | 138 | 0.7 (≈ 1.33 µM) | 0.4 (≈ 0.758 µM) | 68.8 | 72.7 | side effects in clinical use ([10]; in vivo): severe side effects such as alopecia, leukopenia and cardiotoxicity; Antitumor Activity (T/C, prolongation rate of survival day) (L1210 cells [11]; 5 mg/kg/day i.p.): Tox.
3 | COc1cccc2c1C(=O)c1c(O)c3c(c(O)c1C2=O)C[C@@](O)(C(C)=O)C[C@@H]3O[C@H]1C[C@H](N)[C@H](OC2CCCCO2)[C@H](C)O1 (single isomer, unassigned; isomer a) [4'-O-PDa, 4'-O-tetrahydropyranyl daunomycin (isomer a)] | 90 | 96 | 115 | 122 | > 320 | > 320% | 12.5 | 6.25 | 37.3 | – | – | – | – | – | – | – | – | – | – | IC50 (L1210 cells [1]; thymidine, 60 min. at 37° C., read-out: 50% Inhibition Concentration of 14C-Thymidine Incorporation): 0.28 µg/mL (≈ 0.458 µM); IC50 (L1210 cells [1]; uridine, 60 min. at 37° C., read-out: 50% Inhibition Concentration of 14C-Uridine Incorporation): 0.13 µg/mL (≈ 0.213 µM); MIC ([2]; Pseudomonas aeruginosa, A3, Pseudomonas aeruginosa A3): > 100 µg/mL; MIC (Candida albicans): > 50 µg/mL; MIC ([3]; Micrococcus flavus, FDA16, Micrococcus flavus FDA 16): 0.78 µg/mL (≈ 1.28 µM); MIC (Sarcina lutea PCI 1001; Micrococcus luteus, PCI1001): 0.39 µg/mL (≈ 0.638 µM); MIC (Escherichia coli NIHJ): > 100 µg/mL; MIC ([4]; Bacillus, NRRLB558, Bacillus subtillis NRRLB-558): 3.12 µg/mL (≈ 5.1 µM); MIC (Staph. aureus FDA 209P; Staphylococcus aureus, FDA209P): 6.25 µg/mL (≈ 10.2 µM); MIC [5]: 0.78 µg/mL (≈ 1.28 µM); MIC ([6]; ATCC10702): 6.25 µg/mL (≈ 10.2 µM); MIC ([7]; Mycolicibacterium smegmatis, ATCC607): 6.25 µg/mL (≈ 10.2 µM); inhibition at 0.1 µg/mL (L1210 leukemia cells; L1210, 0.1 μg./ml., read-out: Inhibition Rate (growth)): 79.2%; inhibition at 0.5 µg/mL (L1210 leukemia cells; L1210, 0.5 μg./ml., read-out: Inhibition Rate (growth)): 95%
4 | COc1cccc2c1C(=O)c1c(O)c3c(c(O)c1C2=O)C[C@@](O)(C(=O)CO)C[C@@H]3O[C@H]1C[C@H](N)[C@H](O)[C@H](C)O1 [Adriamycin, adriamycin, reference compound] | 128 | 165 | – | – | – | toxic | – | – | – | broad antitumor spectrum against various experimental tumors | 130 | 147 | 239 | 272 | 351 | 2.1 (≈ 3.86 µM) | 0.5 (≈ 0.92 µM) | 70.7 | 84.2 | side effects in clinical use ([10]; clinical antitumor agents): severe side effects such as alopecia, leukopenia and cardiotoxicity; response vs control in vivo at 5 mg/kg (L1210 cells [11]; Mus musculus, L1210, ip, 1080 h, 5 mg/kg/day i.p., read-out: Antitumor Activity (T/C, prolongation rate of survival day)): 189%
